Results: PMC10582335 (Frontiers in Pharmacology, 2023)
Values joined by “and” are separate entries in the source; they are usually repeats but may differ in a detail not shown here. Equal values may be shown once. Read-outs that look alike come from different tables or passages of the source.

How the values were obtained:
[1] = design: method as in Frost et al., 2015; settings: ref Frost et al., 2015, cited from earlier work
[2] = Pharmacokinetics of apixaban in rats, alone and after multiple doses of almonertinib; format: in vivo, Sprague-Dawley (SD) rats; settings: for increase of AUC of apixaban: multiple doses of almonertinib; for MRT inf / MRT last / AUC(0-inf) / AUC(0-t) / Cmax / Tmax / CL/F / Vd/F / half-life: male, Sprague-Dawley, rat, po; for MRT inf: read-out: MRT0-∞; for MRT last: read-out: MRT0-t; for CL/F: read-out: CLz/F (converted); for Vd/F: read-out: Vz/F; for half-life: read-out: t1/2z (converted)
Description: Chromatographic separation was performed using an XSelect HSS T3 column (2.1 mm × 100 mm, 2.5 µm, Waters, Milford, MA, United States) at 40°C by gradient elution. The mobile phase consisted of water (A) and acetonitrile (0.1% formic acid, B). […] The flow rate was 0.35 mL min^−1, and the injection volume was 6 µL. The positive ion mode with multiple reaction detection was used. […] The mass spectrometer conditions, including delustering potential (DP) and collision energy (CE) of the compounds, are shown in Table 1. […] Protein precipitation was used to process the plasma samples. 5 μL of mixed IS working solution, 50 µL of the plasma samples, and 150 µL of acetonitrile were vortex-mixed for 1.0 min. […] The supernatant was transferred to a 96-well plate for sample analysis. […] (Beijing, China). […] The study was approved and supervised by the Animal Ethics Committee of Hebei General Hospital (Shijiazhuang, China) (No. 2023024). Adaptive feeding (sufficient food and water) was performed for 1 week before the experiment. […] All rats were fasted for 12 h before starting the experiments while still given water. Sixty healthy rats were randomly divided into ten groups (n = 6). […] Blood samples were centrifuged at 3,500 g for 10 min, and then the supernatant was gathered and stored in a −80°C refrigerator. After, rat intestine, kidney and liver tissues were harvested for molecular analysis on the ninth or fifth day after treatment with the corresponding drugs for each group. The tissues were placed immediately at −80°C. DAS 2.1.1 Software (Mathematical Pharmacology Professional Committee of China, Shanghai, China) was applied to calculate pharmacokinetic parameters using non-compartmental analysis. SPSS 25.0 statistical software (SPSS Inc., Chicago, IL, United States) was applied to statistically analyze the main pharmacokinetic parameters, including AUC, Cmax, Tmax, t1/2, CLz/F, Vz/F, and MRT.

[3] = apixaban 0.25 mg/kg with multiple doses of almonertinib (group 8) compared with group 2, rats
[4] = apixaban 0.5 mg/kg with multiple doses of almonertinib (group 7) compared with group 2, rats
[5] = plasma, 0.25 mg/kg, rats, oral apixaban 0.25 mg/kg after almonertinib 15 mg/kg for nine days (group 8), mean ± SD, n = 6
[6] = plasma, 0.5 mg/kg, rats, oral apixaban 0.5 mg/kg after almonertinib 15 mg/kg for nine days (group 7), mean ± SD, n = 6
[7] = plasma, 0.5 mg/kg, rats, oral apixaban 0.5 mg/kg alone (group 2), mean ± SD, n = 6

COc1ccc(-n2nc(C(N)=O)c3c2C(=O)N(c2ccc(N4CCCCC4=O)cc2)CC3)cc1 [apixaban, Apixaban]
increase in exposure to apixaban ([1]; combined with diltiazem): 1.4 fold | increase in exposure to apixaban ([1]; combined with ketoconazole): 2.0 fold | increase of Cmax of apixaban ([2]; apixaban 0.25 mg/kg with multiple doses of almonertinib (group 8) compared with apixaban 0.5 mg/kg alone (group 2), rats): 2.19 fold and 2.2 fold | decrease of CLz/F of apixaban [2, 3]: 5.29 fold | increase of AUC0-t of apixaban [2, 3]: 2.06 fold | increase of AUC0-∞ of apixaban [2, 3]: 2.02 fold | increase of Cmax of apixaban ([2]; apixaban 0.5 mg/kg with multiple doses of almonertinib (group 7) compared with apixaban 0.5 mg/kg alone (group 2), rats): 2.69 fold and ~3.0 fold | decrease of CLz/F of apixaban [2, 4]: 3.00 fold | increase of AUC0-t of apixaban [2, 4]: 2.87 fold | increase of AUC0-∞ of apixaban [2, 4]: 2.82 fold | increase of AUC of apixaban ([2]; dose of apixaban reduced by half, rats (discussion)): 2.1 fold | MRT inf ([2]; in vivo, 0.25 mg/kg): 2.06 ± 0.36 h | MRT last ([2]; in vivo, 0.5 mg/kg): 2.19 ± 0.13 h | AUC(0-inf) [2, 5]: 1870 ± 528 ng·h/mL | AUC(0-t) [2, 5]: 1870 ± 529 ng·h/mL | Cmax [2, 5]: 645 ± 191 ng/mL | Tmax [2, 5]: 0.79 ± 0.25 h | CL/F [2, 5]: 2.33 mL/min/kg | Vd/F [2, 5]: 0.44 ± 0.11 L/kg | half-life [2, 5]: 2.17 ± 0.15 h | MRT last ([2]; plasma, 0.25 mg/kg): 2.01 ± 0.32 h | AUC(0-inf) [2, 6]: 2370 ng·h/mL | AUC(0-t) [2, 6]: 2360 ng·h/mL | Cmax [2, 6]: 747 ± 159 ng/mL | Tmax [2, 6]: 0.63 ± 0.14 h | CL/F [2, 6]: 3.67 mL/min/kg | MRT inf [2, 6]: 2.11 ± 0.13 h | Vd/F [2, 6]: 0.58 ± 0.2 L/kg | half-life [2, 6]: 1.81 ± 0.23 h | AUC(0-inf) [2, 7]: 621 ± 168 ng·h/mL | AUC(0-t) [2, 7]: 611 ± 168 ng·h/mL | Cmax [2, 7]: 202 ± 50.9 ng/mL | Tmax [2, 7]: 0.68 ± 0.28 h | CL/F [2, 7]: 14.7 mL/min/kg | MRT inf [2, 7]: 2.42 ± 0.16 h | Vd/F [2, 7]: 3.72 ± 1.63 L/kg | half-life [2, 7]: 2.95 ± 0.96 h | MRT last ([2]; plasma, 0.5 mg/kg): 2.08 ± 0.13 h | increase of AUC of apixaban ([2]; rats (discussion, AUC not specified further)): ~3.0 fold
